# From patent publication US10487054B2, “Therapeutic compounds” (REGENTS OF THE UNIVERSITY OF MINNESOTA, priority 2017, dated 2019)
# How the values were obtained:
# HaCaT cells = experiment: Western blot of SUV-induced TOPK downstream signaling; assay type: cell-based, human
# Protocol: The cells were cultured, treated for 4 h with different concentrations of compound 1 and then exposed to SUV (60 kJ UVA/m^2 and 2.9 kJ UVB/m^2), followed by an additional 15-minute incubation. Cells were harvested and the levels of phosphorylated and total proteins were determined by Western blot analysis with specific antibodies as indicated. […] The cells were cultured and treated with different concentrations of compound 1 for 24 h. Cells were harvested and the levels of phosphorylated and total proteins were determined by Western blot analysis with specific antibodies as indicated. […] For the luciferase assay, JB6 P+ cells stably transfected with an AP-1 luciferase reporter plasmid were cultured. After starvation for 24 h, cells were treated for 1 h with compound 1 (0, 1.25, 2.5, or 5 μM). Cells were then exposed to SUV (60 kJ UVA/m^2 and 2.9 kJ UVB/m^2) and harvested 3 h later. Luciferase activity was measured and AP-1 activity is expressed relative to control cells without SUV treatment. […] Knockdown of TOPK in A431 cell line (left). Stable control or TOPK knockdown cells were co-transfected with 100 ng of the AP-1 luciferase reporter plasmid and 50 ng of internal control […] plasmid. Cells were transfected using iMFectin poly DNA transfection reagent (GenDEPOT) according to the manufacturer's instructions. After 12 h of transfection, cells were incubated with the different concentrations of compound 1 for another 24 h. Luciferase and […] activities were measured using reagents included in the reporter assay system (right). Data are shown as mean values±S.D obtained from triplicate experiments. Significant differences were evaluated using one-way ANOVA and the asterisks (*) indicate a significant effect (*, p<0.05; **, p<0.001; ***, p<0.0001). […]
# (§1) HaCaT or JB6 P+ cells (1×10^6) were cultured in 10-cm dishes for 24 h and then the medium was replaced with 0.1% FBS medium for 24 h. […] Protein concentration in cell lysates was determined using a protein assay kit (Bio-Rad Laboratories, Hercules, Calif.). […]
# JB6 P+ cells = experiment: as above; assay type: cell-based, mouse
# Protocol: The cells were cultured, treated for 4 h with different concentrations of compound 1 and then exposed to SUV (60 kJ UVA/m^2 and 2.9 kJ UVB/m^2), followed by an additional 15-minute incubation. Cells were harvested and the levels of phosphorylated and total proteins were determined by Western blot analysis with specific antibodies as indicated. […] The cells were cultured and treated with different concentrations of compound 1 for 24 h. Cells were harvested and the levels of phosphorylated and total proteins were determined by Western blot analysis with specific antibodies as indicated. […] For the luciferase assay, JB6 P+ cells stably transfected with an AP-1 luciferase reporter plasmid were cultured. […] Luciferase activity was measured and AP-1 activity is expressed relative to control cells without SUV treatment. […] Luciferase and 3-galactosidase activities were measured using reagents included in the reporter assay system (right). […] Significant differences were evaluated using one-way ANOVA and the asterisks (*) indicate a significant effect (*, p<0.05; **, p<0.001; ***, p<0.0001). […]
# as §1
# A431 cells = experiment: Western blot of TOPK downstream signaling; assay type: cell-based, human
# Protocol: (§2) The cells were cultured, treated for 4 h with different concentrations of compound 1 and then exposed to SUV (60 kJ UVA/m^2 and 2.9 kJ UVB/m^2), followed by an additional 15-minute incubation. Cells were harvested and the levels of phosphorylated and total proteins were determined by Western blot analysis with specific antibodies as indicated. […] The cells were cultured and treated with different concentrations of compound 1 for 24 h. Cells were harvested and the levels of phosphorylated and total proteins were determined by Western blot analysis with specific antibodies as indicated. […] For the luciferase assay, JB6 P+ cells stably transfected with an AP-1 luciferase reporter plasmid were cultured. After starvation for 24 h, cells were treated for 1 h with compound 1 (0, 1.25, 2.5, or 5 μM). Cells were then exposed to SUV (60 kJ UVA/m^2 and 2.9 kJ UVB/m^2) and harvested 3 h later. Luciferase activity was measured and AP-1 activity is expressed relative to control cells without SUV treatment. […] Knockdown of TOPK in A431 cell line (left). Stable control or TOPK knockdown cells were co-transfected with 100 ng of the AP-1 luciferase reporter plasmid and 50 ng of internal control […] plasmid. Cells were transfected using iMFectin poly DNA transfection reagent (GenDEPOT) according to the manufacturer's instructions. After 12 h of transfection, cells were incubated with the different concentrations of compound 1 for another 24 h. Luciferase and […] activities were measured using reagents included in the reporter assay system (right). Data are shown as mean values±S.D obtained from triplicate experiments. Significant differences were evaluated using one-way ANOVA and the asterisks (*) indicate a significant effect (*, p<0.05; **, p<0.001; ***, p<0.0001).
# (§3) HaCaT or JB6 P+ cells (1×10^6) were cultured in 10-cm dishes for 24 h and then the medium was replaced with 0.1% FBS medium for 24 h. Cells were then treated with different concentrations of compound 1 for 4 h followed by exposure to SUV (60 kJ UVA/m^2 and 2.9 kJ UVB/m^2). After SUV, cells were incubated for 15 min at 37° C. in a 5% CO2 humidified incubator. SCC12 and A431 cells (1.5×10^6) were cultured in 10-cm dishes overnight and then starved for 24 h. Cells were then treated with different concentrations of compound 1 for an additional 24 h. Protein concentration in cell lysates was determined using a protein assay kit (Bio-Rad Laboratories, Hercules, Calif.). Equal amounts of proteins were resolved by SDS-PAGE and then transferred onto polyvinylidene difluoride (PVDF) membranes (EMD Millipore Corp., Billerica, Mass.) and membranes were blocked with 5% nonfat milk for 1 h at room temperature. […]
# SCC12 cells = experiment: Western blot of TOPK downstream signaling; assay type: cell-based, human
# Protocol: as §2, §3
# [1] = tested on: AP-1 activity in JB6 P+ cells; experiment: AP-1 luciferase reporter assay, SUV-induced; assay type: cell-based, mouse; conditions: JB6 P+ cells, 1.25, 2.5 or 5 μM, dose-dependently
# Protocol: The cells were cultured, treated for 4 h with different concentrations of compound 1 and then exposed to SUV (60 kJ UVA/m^2 and 2.9 kJ UVB/m^2), followed by an additional 15-minute incubation. Cells were harvested and the levels of phosphorylated and total proteins were determined by Western blot analysis with specific antibodies as indicated. […] The cells were cultured and treated with different concentrations of compound 1 for 24 h. Cells were harvested and the levels of phosphorylated and total proteins were determined by Western blot analysis with specific antibodies as indicated. […] For the luciferase assay, JB6 P+ cells stably transfected with an AP-1 luciferase reporter plasmid were cultured. After starvation for 24 h, cells were treated for 1 h with compound 1 (0, 1.25, 2.5, or 5 μM). Cells were then exposed to SUV (60 kJ UVA/m^2 and 2.9 kJ UVB/m^2) and harvested 3 h later. Luciferase activity was measured and AP-1 activity is expressed relative to control cells without SUV treatment. […] Knockdown of TOPK in A431 cell line (left). […] Luciferase and 3-galactosidase activities were measured using reagents included in the reporter assay system (right). […] Significant differences were evaluated using one-way ANOVA and the asterisks (*) indicate a significant effect (*, p<0.05; **, p<0.001; ***, p<0.0001). […]
smiles,measurement,setting,value
"O=C1Nc2ccc(C34CC5CC(CC(C5)C3)C4)cc2C1=NO [compound 1, 5-(adamantan-1-yl)-3-(hydroxyimino)indolin-2-one]",phosphorylated c-Jun protein levels,HaCaT cells; HaCaT cells exposed to SUV,significantly suppressed
same,"phosphorylation of ERK1/2, p38, and JNKs","HaCaT cells; HaCaT cells, 4 h treatment then SUV (60 kJ UVA/m2 and 2.9 kJ UVB/m2)",markedly suppressed
same,phosphorylated and total TOPK protein levels,"HaCaT cells; Western blot, cell lines not specified in the sentence (FIG. 3A, 3B)",no significant changes
same,phosphorylated c-Jun protein levels,JB6 P+ cells; JB6 P+ cells exposed to SUV,significantly suppressed
same,"phosphorylation of ERK1/2, p38, and JNKs","JB6 P+ cells; JB6 P+ cells, 4 h treatment then SUV (60 kJ UVA/m2 and 2.9 kJ UVB/m2)",markedly suppressed
same,phosphorylated c-Jun protein levels,A431 cells,blocked dose-dependently
same,"phosphorylation of ERK1/2, p38, and JNKs","A431 cells; 24 h, dose-dependently",blocked
same,phosphorylated c-Jun protein levels,SCC12 cells,blocked dose-dependently
same,"phosphorylation of ERK1/2, p38, and JNKs","SCC12 cells; 24 h, dose-dependently",blocked
same,SUV-induced transactivation of AP-1,[1],inhibited
